Tests used:
survivin [1] = target: T1, survivin (Homo sapiens, UniProt O15392); assay: Biolayer interferometry (reverse), immobilized survivin, EZH2 peptide as analyte; type: binding; conditions: peptide 21.2 µM
T1 construct: transferred to the survivin1-142 construct used in the present study; His8 tag (pHIS8 vector, thrombin-cleavable); made in house; host or cells: E. coli BL21(DE3) star
Method: Other phases in the reverse experiment follow the same parameters as in non-reverse experiments mentioned above.
Δλ(t) values were converted to dimensionless quantities by dividing the wavelength shifts with 1 nm prior to the analysis. To develop the model, we tentatively assumed Langmuir’s 1:1 model.[85] The kinetic modelling was performed with the pymc3 python package[66] using a Bayesian model: p(KD,app|lower=10^−15,upper=10^−3)=1/upper−lower p(k−1|lower=10^−20,upper=10)=1/upper−lower k1=k−1/KD,app p(A|lower=10^−6,upper=10)=1/upper−lower p(ε|lower=10^−6,upper=1)=1/upper−lower p(Δλ(0)|μ=⟨Δλi⟩,σ=1/10∑(Δλi−⟨Δλi⟩)^2/n)=1/2πσe^−1/2σ(Δλ(t)−μ)^2;Δλ(0)∈[10^−20,+∞]
The association and dissociation phases were modelled simultaneously, and the probability of wavelength shift during association phase was modeled as: p(Δλ(t)|μ=Ac/KD,app+c(1−e^−(k1c+k−1)t),σ=ε)=1/2πσe^−1/2σ(Δλ(t)−μ)^2
The probability of wavelength shift during the dissociation phase was modelled as: p(Δλ(t)|μ=Δλ(0)e^−k−1t,σ=ε)=1/2πσe^−1/2σ(Δλ(t)−μ)^2, where A and k1 are the amplitude and rate constant of the exponential association process, respectively. The concentration of the analyte is c and KD,app is the apparent dissociation constant. The dissociation rate constant is marked with k-1. ε represents the standard deviation of Δλ(t) . […]

survivin [2] = target: T1, survivin; assay: PEPperCHIP peptide microarray, survivin interaction; type: binding; conditions: 1 μg/mL survivin
Description: We were looking for potential direct interactions between survivin and short peptide sequences originating from PRC2 subunits and other proteins involved in histone modifications based on the in vivo results. Therefore, we created a peptide microarray of overlapping peptides obtained from EZH2, EED, SUZ12, and JARID2 to investigate how survivin interacts with the activity of the PRC2 complex. These subunits form the core of PRC2, and the interaction of survivin with the PRC2 molecular scaffold indicates a potentially disruptive role for survivin in PRC2 function. The fluorescence signal generated by labeled survivin is compared in Figure 2 as a function of position along the polypeptide chain of PRC2 subunits. Figure S1 depicts the raw fluorescence images. Moreover, the microarray fluorescence intensities projected on the three-dimensional structure of the PRC2 core complex are shown in Figure 3. The whole dataset is deposited at the Zenodo data base.
The location of survivin on the peptide microarray was clearly correlated with the amino acid content of the peptide at 1 μg/mL survivin concentration. When evaluating how accurate the predictions were, one should keep in mind that the primary and higher-order structures of the peptide were not at all considered in this analysis. Mislabeling peptides is possible for multiple reasons. The smallest fluorescence signal was chosen as the limit of detection and photon-counting errors may cause weak interactions to be undetected at low fluorescence intensities. Moreover, if the fluorescence intensity of experimental duplicates varied by more than 40%, a peptide was classified as non-interacting even if the lack of reproducibility is ambiguous evidence for the lack of interaction. […] Reducing the number of hidden layer perceptrons from 100 (the default value) to 9 had no effect on the classifier’s performance. Even a 15 amino acid peptide segment composition gives a high degree of uniqueness and highly scalable intensity for survivin-peptide interaction. Survivin has a non-globular structure with no deep binding pockets.
A peptide microarray was designed using the protein sequences from: Cdk1 (P06493), KAT2A/GCN5 (Q92830), SPI1/PU1 (P17947), SUZ12 (Q15022), EED (O75530), JADE3 (Q92613), DIABLO/SMAC (Q9NR28), BOREALIN (Q53HL2), INCENP (Q9NQS7), SGOL1 (Q5FBB7), SGOL2 (Q562F6), EZH2 (Q15910), JARID2 (Q92833), Histone H3 (P68431), AURORAKB (Q96GD4), JADE1 (Q6IE81), JTB (O76095), EVI5 (O60447), RAN (P62826), USP9X (Q93008), C-IAP1 (Q13490), STAT3 (P40763), BRUCE/APOLLON (Q9NR09), XPO1 (O14980), CDX2 (Q99626), Msx2 (P35548), RBM15 (Q96T37), PHF21A (Q96BD5), PHF8 (Q9UPP1), DIDO (Q9BTC0), JADE2 (Q9NQC1) and HASPIN (Q8TF76). The Uniprot ID is shown in parenthesis. The protein sequences were divided into 15 amino acid long peptides with a 10 amino acid overlap. To investigate background interactions with the protein-derived peptides that could interfere with the main assays, one of the PEPperCHIP Peptide Microarrays (PEPperPRINT Gmbh) was pre-staining with the secondary 6x His Tag Antibody DyLight680 antibody at a dilution of 1:1000 and with the monoclonal anti-HA (12CA5)-DyLight800 control antibody at a dilution of 1:1000. Subsequent incubation of other peptide microarray copies with survivin at a concentration of 1 μg/ml in incubation buffer was followed by staining with the secondary 6x His Tag Antibody DyLight680 antibody (Rockland Immunochemicals, Pottstown, PA, USA) and the monoclonal anti-HA (12CA5)-DyLight800 control antibody (Rockland Immunochemicals, Pottstown, PA, USA). The read-out was performed by scanning intensities of 7/7 (red/green). As an internal quality control, HA and His tag control peptides were stained simultaneously to confirm assay quality and to facilitate grid alignment for data quantification. The LI-COR Odyssey Imaging System was used for read-out, and the PepSlide Analyzer was used for quantification of spot intensities and peptide annotation. […]

T1 sequence (O15392 whole entry): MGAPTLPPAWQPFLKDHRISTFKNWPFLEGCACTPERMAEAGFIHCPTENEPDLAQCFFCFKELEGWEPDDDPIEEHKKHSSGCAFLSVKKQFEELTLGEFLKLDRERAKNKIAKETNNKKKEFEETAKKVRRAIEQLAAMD

VELVNALGQYNDDDDDDDGD DPEEREEKQKDLEDHRDDKE [EZH2_172-211, PRC2-derived peptide, EZH2 residues 172–211, synthesized by Biomatik]
k1 (association rate constant) (survivin [1]; posterior mean ± SD): 45 ± 0.59 M⁻¹ s⁻¹
A (amplitude of association) (survivin [1]; posterior mean, SD 1.2×10-3): 0.13 nm
Average FI (%) (survivin [2]; anti-His tag DyLight680 read-out, percentage of maximum fluorescence intensity units (64193) per peptide, 15-mer microarray peptides covering the residues): 71%
Integrated FI (survivin [2]; in units of the maximum FI per peptide, 15-mer microarray peptides covering the residues): 4.28
survivin interaction / fluorescence on microarray (in words) (survivin [2]; peptide microarray): high survivin-associated fluorescence intensity

Source: paper PMC10391610, “Survivin prevents the polycomb repressor complex 2 from methylating histone 3 lysine 27” (iScience, 2023)
